Assay results from patent publication US20260256699A1, “BIOACTIVE MICROSPHERE AND METHOD FOR PREPARATION THEREOF” (priority 2021, published 2026).

Test: Stability of vitamin D2 in milk boiled twice (relative assay)
Type: physicochemical
Experimental: In an example, the effect of bioactive microsphere of the present disclosure on the stability of bioactive, when subjected to the deteriorating effect of processing parameter such as heating, was studied. The stability of vitamin D2 was determined by heating the milk containing the bioactive microsphere as prepared in Example 1, and the milk containing pure vitamin D2, i.e., control vitamin D2.
For the purpose of this example, both the vitamin D2 containing milk were boiled twice, and the amount of vitamin D2 was determined after second boiling, as shown in Table 1. The difference in the amount of vitamin D2 in the milk before boiling, and after the second boiling, illustrated the deteriorating effect of heat on the vitamin D2.

C=C1CC[C@H](O)C/C1=C/C=C1\CCC[C@]2(C)[C@@H]([C@H](C)/C=C/[C@H](C)C(C)C)CC[C@@H]12 [Control vitamin D2, vitamin D2]
Stability of vitamin D2 in milk on boiling (in words) (milk, boiled two times): deactivated on boiling | % Relative assay Before boiling (%) (vitamin D2 in milk, before boiling): 100% | % Degradation (vitamin D2 in milk, before boiling vs after second boiling): 65% | % Relative assay After second boiling (%) (vitamin D2 in milk, boiled twice, after second boiling): 35%
